Source: patent publication US10172796B2, “Use of umirolimus and its derivatives for treating cancer” (Manli International Ltd., priority 2012, dated 2019)

Tests used:
[1] = tested on: BxPC-3/pancreatic; test: CellTiter-Glo luminescent cell viability assay, BxPC-3; assay type: cell-based, human; settings: 72 hours of in vitro culture
Method: (§1) Umirolimus was added to cultured cell lines derived from 9 types of human cancer. After 72 hours of in vitro culture, the 50% inhibitory concentration (IC50) of umirolimus on cell growth was measured using the CellTiter-Glo luminescent cell viability assay.

[2] = tested on: MDA-MB-231/breast; test: CellTiter-Glo luminescent cell viability assay, MDA-MB-231; assay type: cell-based, human; settings: 72 hours of in vitro culture
Method: as §1

[3] = tested on: SNU-16/gastric; test: CellTiter-Glo luminescent cell viability assay, SNU-16; assay type: cell-based, human; settings: 72 hours of in vitro culture
Method: as §1

[4] = tested on: NCI-H460/lung; test: CellTiter-Glo luminescent cell viability assay, NCI-H460; assay type: cell-based, human; settings: 72 hours of in vitro culture
Method: as §1

[5] = See J. Med. Chem. 2000, 43:2922-2928; cited from earlier work
[6] = tested on: K562/chronic myelogenous leukemia; test: CellTiter-Glo luminescent cell viability assay, K562; assay type: cell-based, human; settings: 72 hours of in vitro culture
Method: as §1

[7] = tested on: SK-MES-1/lung; test: CellTiter-Glo luminescent cell viability assay, SK-MES-1; assay type: cell-based, human; settings: 72 hours of in vitro culture
Method: as §1

[8] = tested on: SK-HEP-1/liver; test: CellTiter-Glo luminescent cell viability assay, SK-HEP-1; assay type: cell-based, human; settings: 72 hours of in vitro culture
Method: as §1

[9] = tested on: AZ-521/gastric; test: CellTiter-Glo luminescent cell viability assay, AZ-521; assay type: cell-based, human; settings: 72 hours of in vitro culture
Method: as §1

[10] = tested on: 10 human cancer cell lines; test: Inhibition of cancer cell growth by umirolimus as compared to sirolimus and everolimus; assay type: cell-based; settings: 8 out of the 10 cancer cell lines tested: A2780, SK-HEP-1, DLD-1, SNU-16, BxPC-3, 786-O, SK-MES-1, AZ-521; FIG. 1
Method: as §1
The IC50 for 3 “limus” drugs for inhibiting the growth of 10 human cancer cell is lines was measured using the CellTiter-Glo luminescent cell viability assay as described in Example 1. The ten exemplary human cancer cell lines tested were SK-MES-1 (lung cancer), BxPC-3 (pancreatic cancer), AZ-521 (gastric cancer), SNU-16 (gastric cancer), SK-HEP-1 (liver cancer), A2780 (ovarian cancer), MDA-MB-231 (breast cancer), DLD-1 (colorectal cancer), DU-145 (prostate cancer) and 786-O (kidney cancer).

[11] = tested on: SW620/colorectal; test: CellTiter-Glo luminescent cell viability assay, SW620; assay type: cell-based, human; settings: 72 hours of in vitro culture
Method: as §1

[12] = tested on: A2780/ovarian; test: CellTiter-Glo luminescent cell viability assay, A2780; assay type: cell-based, human; settings: 72 hours of in vitro culture
Method: as §1

[13] = tested on: RPMI-8226/multiple myeloma; test: CellTiter-Glo luminescent cell viability assay, RPMI-8226; assay type: cell-based, human; settings: 72 hours of in vitro culture
Method: as §1

[14] = tested on: 11 cell lines from 9 types of human cancers; test: CellTiter-Glo cell viability assay, summary over the cell line panel; assay type: cell-based; settings: summary for all 11 cell lines of Table 1
Method: as §1

CCOCCO[C@@H]1CC[C@@H](C[C@@H](C)[C@@H]2CC(=O)[C@H](C)/C=C(\C)[C@@H](O)[C@@H](OC)C(=O)[C@H](C)C[C@H](C)/C=C/C=C/C=C(\C)[C@@H](OC)C[C@@H]3CC[C@@H](C)[C@@](O)(O3)C(=O)C(=O)N3CCCC[C@H]3C(=O)O2)C[C@H]1OC [umirolimus]
IC50 [1]: 3.07 µM | Maximum inhibition [1]: 77.24% | IC50 [2]: 9.52 µM | Maximum inhibition [2]: 99.23% | IC50 [3]: 1.14 µM | Maximum inhibition [3]: 99.75% | IC50 [4]: 7.07 µM | Maximum inhibition [4]: 88.99% | lipophilicity as compared to sirolimus and everolimus [5]: 10 times | IC50 [6]: 7.97 µM | Maximum inhibition [6]: 98.49% | IC50 [7]: 8.24 µM | Maximum inhibition [7]: 96.57% | IC50 [8]: 7.81 µM | Maximum inhibition [8]: 99.97% | IC50 [9]: 4.23 µM | Maximum inhibition [9]: 99.88% | IC50 compared to sirolimus and everolimus [10]: superior to that of sirolimus and everolimus | IC50 [11]: 8.33 µM | Maximum inhibition [11]: 55.69% | IC50 [12]: 7.31 µM | Maximum inhibition [12]: 100.19% | IC50 [13]: 6.8 µM | Maximum inhibition [13]: 99.26% | IC50 [14]: < 10 µM
